The values that follow come from article PMC3181484 (The EMBO Journal, 2011).

The target of one assay is T1, TREK-1 (Rattus norvegicus, UniProt Q920B6).
T1 sequence (Q920B6 1-426): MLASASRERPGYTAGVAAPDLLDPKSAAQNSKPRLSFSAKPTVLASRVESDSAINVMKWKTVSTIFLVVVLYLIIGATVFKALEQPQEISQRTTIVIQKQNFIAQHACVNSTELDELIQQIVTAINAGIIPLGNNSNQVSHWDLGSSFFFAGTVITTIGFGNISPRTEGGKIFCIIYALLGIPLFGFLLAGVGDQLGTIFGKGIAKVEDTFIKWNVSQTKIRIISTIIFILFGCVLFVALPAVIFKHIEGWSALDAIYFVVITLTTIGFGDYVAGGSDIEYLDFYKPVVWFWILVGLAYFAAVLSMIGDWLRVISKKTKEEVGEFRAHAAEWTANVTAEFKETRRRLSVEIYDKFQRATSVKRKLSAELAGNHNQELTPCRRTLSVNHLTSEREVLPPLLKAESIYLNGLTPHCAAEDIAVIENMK
The format is cell-based.

In another assay the target is T2, TRESK (Homo sapiens, UniProt Q7Z418).
T2 sequence (Q7Z418 1-384): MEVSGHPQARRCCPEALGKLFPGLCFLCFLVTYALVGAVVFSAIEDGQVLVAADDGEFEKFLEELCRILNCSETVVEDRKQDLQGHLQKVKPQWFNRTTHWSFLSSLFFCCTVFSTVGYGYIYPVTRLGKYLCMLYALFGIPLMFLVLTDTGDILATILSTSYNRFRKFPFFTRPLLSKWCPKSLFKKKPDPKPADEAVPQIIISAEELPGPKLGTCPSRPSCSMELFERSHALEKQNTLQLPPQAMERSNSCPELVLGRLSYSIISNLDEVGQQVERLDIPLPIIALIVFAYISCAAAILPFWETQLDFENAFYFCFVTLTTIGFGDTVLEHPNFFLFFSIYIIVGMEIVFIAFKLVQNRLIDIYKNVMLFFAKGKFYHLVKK
Put plainly: QA ion block of TRESK currents, giant inside-out patches from Xenopus oocytes. Type of assay: cell-based.

In general, inhibition refers to the drop in the measured response relative to a control, in per cent. Usually IC50 stands for the concentration that gives 50% inhibition. Consider `CCCC[N+](CCCC)(CCCC)CCCC` [TButA, Tetrabutylammonium bromide], for which the inhibition at 5000 µM at TREK-1 (read-out: inhibition of TREK-1 current) amounted to 60%. The same compound registered an IC50 on TRESK of 7 ± 1 µM. For the same compound, the “recovery from inhibition (kinetics)” value on TRESK (TRESK, 5 μM, −80 mV) is “fairly rapid”.
Turning to `CC[N+](CC)(CC)CC` [TEA, Tetraethylammonium chloride], the results for the IC50 at TREK-1 and against TRESK were about 60000 µM and 800 ± 100 µM, respectively.
